Data: the Kinase Knowledgebase extract (Sharma et al. 2016)

Target: EGFR (UniProt P00533)
Sequence (P00533 whole entry, looked up): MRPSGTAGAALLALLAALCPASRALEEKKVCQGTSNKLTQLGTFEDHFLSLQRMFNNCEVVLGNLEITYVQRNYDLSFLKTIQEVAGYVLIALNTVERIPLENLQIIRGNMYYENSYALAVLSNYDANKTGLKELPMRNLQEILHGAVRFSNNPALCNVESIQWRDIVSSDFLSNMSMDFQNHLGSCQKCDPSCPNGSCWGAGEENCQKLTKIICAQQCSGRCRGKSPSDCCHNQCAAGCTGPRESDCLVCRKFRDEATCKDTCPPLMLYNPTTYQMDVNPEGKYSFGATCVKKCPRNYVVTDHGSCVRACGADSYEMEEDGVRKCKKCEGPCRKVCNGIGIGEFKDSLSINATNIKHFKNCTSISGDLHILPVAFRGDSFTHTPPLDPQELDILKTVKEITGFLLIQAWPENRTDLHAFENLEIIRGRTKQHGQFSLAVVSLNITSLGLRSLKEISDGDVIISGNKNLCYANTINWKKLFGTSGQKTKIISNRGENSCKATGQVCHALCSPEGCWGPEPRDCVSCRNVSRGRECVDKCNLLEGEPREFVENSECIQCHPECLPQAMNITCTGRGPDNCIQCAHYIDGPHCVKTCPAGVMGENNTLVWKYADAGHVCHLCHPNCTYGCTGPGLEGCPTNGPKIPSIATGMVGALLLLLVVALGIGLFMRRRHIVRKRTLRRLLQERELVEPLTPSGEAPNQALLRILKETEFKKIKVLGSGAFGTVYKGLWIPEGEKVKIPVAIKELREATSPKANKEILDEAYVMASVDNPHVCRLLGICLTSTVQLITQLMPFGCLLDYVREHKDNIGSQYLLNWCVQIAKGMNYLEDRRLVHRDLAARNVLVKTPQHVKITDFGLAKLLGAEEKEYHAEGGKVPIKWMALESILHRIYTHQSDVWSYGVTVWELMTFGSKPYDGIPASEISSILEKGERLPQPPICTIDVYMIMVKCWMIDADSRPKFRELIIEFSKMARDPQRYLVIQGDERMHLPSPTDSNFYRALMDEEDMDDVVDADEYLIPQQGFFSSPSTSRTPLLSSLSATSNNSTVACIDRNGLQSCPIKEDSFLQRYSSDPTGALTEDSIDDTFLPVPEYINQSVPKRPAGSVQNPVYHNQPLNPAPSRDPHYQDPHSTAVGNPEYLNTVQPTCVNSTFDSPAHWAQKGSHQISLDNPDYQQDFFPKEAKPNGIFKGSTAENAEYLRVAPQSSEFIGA

First: Cc1[nH]c2ncnc(Nc3cccc(Br)c3)c2c1C
Second: Cc1[nH]c2ncnc(Nc3cccc(O)c3)c2c1C
The IC50 of the first is 46-fold lower: 27 nM for the first, 1250 nM for the second.

Oc1cccc(-c2cc3c(Nc4cccc(Cl)c4)ncnc3[nH]2)c1 and Nc1cccc(-c2cc3c(Nc4cccc(Cl)c4)ncnc3[nH]2)c1 cannot be ordered by IC50: < 5 nM for the first, < 5 nM for the second.

O=C(O)c1ccc(-c2cc3c(Nc4cccc(Cl)c4)ncnc3[nH]2)cc1 and CCOC(=O)c1ccc(-c2cc3c(Nc4cccc(Cl)c4)ncnc3[nH]2)cc1 cannot be ordered by IC50: < 5 nM for the first, < 5 nM for the second.

Going from Brc1cccc(Nc2ccnc3ccccc23)c1 to Brc1cccc(Nc2nccc3ccccc23)c1, the IC50 rises from 5500 nM to > 100000 nM.

First: COc1cc2nc(C)nc(Nc3cccc(Br)c3)c2cc1OC
Second: COc1cc2nc(N)nc(Nc3cccc(Br)c3)c2cc1OC
The IC50 of the first is higher: > 10000 nM for the first, 463 nM for the second.

Compared with Cn1c(=O)c(-c2c(Cl)cccc2Cl)cc2cnc(N)nc21, CN(C)c1ncc2cc(-c3c(Cl)cccc3Cl)c(=O)n(C)c2n1 is 8.9-fold higher in IC50: 5600 nM for the first, 50000 nM for the second. The first is the more potent here.

Nc1ccc(-c2cc3c(Nc4cccc(Cl)c4)ncnc3[nH]2)cc1 and Oc1ccc(-c2cc3c(Nc4cccc(Cl)c4)ncnc3[nH]2)cc1 cannot be ordered by IC50: < 5 nM for the first, < 5 nM for the second.

Compared with Brc1cccc(Nc2ncnc3ccccc23)c1, Cc1c(-c2ccccc2)[nH]c2ncnc(Nc3cccc(Cl)c3)c12 is 2.7-fold lower in IC50: 27 nM for the first, 10 nM for the second.

First: Cc1[nH]c2ncnc(Nc3cccc(C(=O)O)c3)c2c1C
Second: Clc1cccc(Nc2ncnc3[nH]nc(Nc4cccc(Cl)c4)c23)c1
The IC50 of the first is 190-fold higher: 16300 nM for the first, 84 nM for the second.

CCN(CC)CCOc1ccc(Nc2ncc3cc(-c4c(Cl)cccc4Cl)c(NC(=O)NC(C)(C)C)nc3n2)cc1 was tested, and the IC50 was 24 nM.
